According to US20020198315A1, “Salts of peptides with carboxy-terminated polyesters” (priority 1992, published 2002):

Tests used:
[1] = Dissolution / solubility in dichloromethane; assay type: physicochemical
Experimental: To this solution was added trifluoroacetic acid (50 μl), and the mixture was stirred vigorously.
The drug solution was added to the copolymer solution and was mixed thoroughly. This mixture was then added dropwise to liquid nitrogen to freeze it as small beads. The solid material was freeze dried for two days using an Edwards high vacuum freeze drier, and the dried material was further dried at 50-55° C. in a vacuum oven for 24 hours.
The peptide known as Substance P, in the form of its acetate salt (ex Sigma, 2 mg) was added to dichloromethane (3 ml) and thoroughly agitated.
Lys^8-vasopressin acetate salt (2 mg, ex Sigma) was added to dichloromethane (3 ml) and agitated.
(i) Dichloromethane (4 ml) was added to a freeze-dried preparation of ZD6003 (39.72 mg).
A lactide/glycolide copolymer (75/25, 364.1 mg, Mw=16,800 by size exclusion chromatography, polydispersity=2.2, ex Boehringer Ingelheim) was added.

[2] = cited from earlier work

CC(C)C[C@H](NC(=O)[C@@H](COC(C)(C)C)NC(=O)[C@H](Cc1ccc(O)cc1)NC(=O)[C@H](CO)NC(=O)[C@H](Cc1c[nH]c2ccccc12)NC(=O)[C@H](Cc1cnc[nH]1)NC(=O)[C@@H]1CCC(=O)N1)C(=O)N[C@@H](CCCNC(=N)N)C(=O)N1CCC[C@H]1C(=O)NNC(N)=O [Goserelin acetate]
goserelin in benzyl benzoate supernatant, in words (40° C., stirred, aliquots after 2 and 9 Days, limit of detection 0.2 μg/ml): No goserelin was detectable in either sample | equilibrium solubility of goserelin in benzyl benzoate (estimated) (at 40° C.): less than 0.2 μg/mg | solubility in benzyl benzoate, in words (lipophilic solvents such as benzyl benzoate): not soluble

Substance P
behaviour in dichloromethane (dissolves or not), in words [1]: showed no indication of dissolving

[Het^−1, Arg^11, Ser^17,27,60,65] human G-CSF (granulocyte-colony stimulating factor) modified with polyethylene glycol 5000 [ZD6003]
behaviour in dichloromethane (dissolves or not), in words [1]: opaque dispersion of drug in the solvent

CC(C)C[C@H](NC(=O)[C@@H](COC(C)(C)C)NC(=O)[C@H](Cc1ccc(O)cc1)NC(=O)[C@H](CO)NC(=O)[C@H](Cc1c[nH]c2ccccc12)NC(=O)[C@H](Cc1cnc[nH]1)NC(=O)[C@@H]1CCC(=O)N1)C(=O)N[C@@H](CCCNC(=N)N)C(=O)N1CCC[C@H]1C(=O)NNC(N)=O [goserelin, [D-Ser(Bu^t)^6, Azgly^10]-LHRH]
metabolic half-life [2]: 4 to 6 h

Lys^8-vasopressin acetate salt
behaviour in dichloromethane (dissolves or not), in words [1]: showed no indication of dissolving
